{"source": "patent US20260297060A1", "about": "“COMPOUNDS FOR THE DEGRADATION OF MUTANT BRAF” (C4 THERAPEUTICS, INC., priority 2023, published 2026)", "experiment": "Pharmacokinetics in female BALB/c nude mice bearing A375 xenografts, 1 day dosing (PK and PD study): plasma, tumor and brain concentrations, AUC", "type": "in vivo", "conditions": "mouse, po", "description": "The concentrations of Dabrafenib, Compound 26 and Compound 141 in the treatment of female BALB/c nude mice bearing A375 xenografts are shown in Table 62-Table 72 and FIG. 52-FIG. 73.", "key": {"[1]": {"conditions": "plasma, 1.5 mg/kg, Compound 141, 1.5 mg/kg p.o. BID × 1 day, post 1st dose, read-out: Mean Concentration in Plasma ± SEM"}, "[2]": {"conditions": "plasma, 1.5 mg/kg, Compound 141, 1.5 mg/kg p.o. BID × 1 day, post 2nd dose, read-out: Mean Concentration in Plasma ± SEM"}, "[3]": {"conditions": "plasma, 3 mg/kg, 3 mg/kg p.o. QD × 1 day, read-out: Mean Concentration in Plasma ± SEM"}, "[4]": {"conditions": "plasma, 5 mg/kg, 5 mg/kg p.o. BID × 1 day, post 1st dose, read-out: Mean Concentration in Plasma ± SEM"}, "[5]": {"conditions": "plasma, 5 mg/kg, 5 mg/kg p.o. BID × 1 day, post 2nd dose, read-out: Mean Concentration in Plasma ± SEM"}, "[6]": {"conditions": "tumor, 0.75 mg/kg, 0.75 mg/kg p.o. BID × 1 day, post 2nd dose, read-out: Mean Concentration in Tumor ± SEM"}, "[7]": {"conditions": "tumor, 1 mg/kg, 1 mg/kg p.o. TID × 1 day, post 3rd dose, read-out: Mean Concentration in Tumor ± SEM"}, "[8]": {"conditions": "tumor, 1.5 mg/kg, Compound 141, 1.5 mg/kg p.o. BID × 1 day, post 2nd dose, read-out: Mean Concentration in Tumor ± SEM"}, "[9]": {"conditions": "tumor, 3 mg/kg, 3 mg/kg p.o. QD × 1 day, read-out: Mean Concentration in Tumor ± SEM"}, "[10]": {"conditions": "tumor, 5 mg/kg, 5 mg/kg p.o. BID × 1 day, post 2nd dose, read-out: Mean Concentration in Tumor ± SEM"}}, "note": "Like-named read-outs stand apart in the source and are kept apart here."}
{"smiles": "CCN(C)S(=O)(=O)Nc1ccc(F)c(Oc2ccc3ncn(C4CC5(CCN(C6CC7(C6)CN(c6cc8c(cc6F)c(N6CCC(=O)NC6=O)nn8C)C7)CC5)C4)c(=O)c3c2)c1C#N", "note": "(stereo not shown) [Compound 141, 6-[2-cyano-3-[[ethyl(methyl)sulfamoyl]amino]-6-fluoro-phenoxy]-3-[7-[2-[3-(2,4-dioxohexahydropyrimidin-1-yl)-5-fluoro-1-methyl-indazol-6-yl]-2-azaspiro[3.3]heptan-6-yl]-7-azaspiro[3.5]nonan-2-yl]-4-oxo-quinazoline]", "values": [{"measurement": "concentration at 0.25 h", "setting": "[1]", "value": "710 ± 61.9", "unit": "ng/mL"}, {"measurement": "concentration at 0.5 h", "setting": "[1]", "value": "1150 ± 94", "unit": "ng/mL"}, {"measurement": "concentration at 1 h", "setting": "[1]", "value": "2030 ± 255", "unit": "ng/mL"}, {"measurement": "concentration at 2 h", "setting": "[1]", "value": "1610 ± 128", "unit": "ng/mL"}, {"measurement": "concentration at 4 h", "setting": "[1]", "value": "796 ± 312", "unit": "ng/mL"}, {"measurement": "concentration at 8 h", "setting": "[1]", "value": "256 ± 19.3", "unit": "ng/mL"}, {"measurement": "concentration at 12 h", "setting": "[1]", "value": "43.4 ± 4.65", "unit": "ng/mL"}, {"measurement": "concentration at 0.25 h", "setting": "[2]", "value": "359 ± 30.7", "unit": "ng/mL"}, {"measurement": "concentration at 0.5 h", "setting": "[2]", "value": "830 ± 129", "unit": "ng/mL"}, {"measurement": "concentration at 1 h", "setting": "[2]", "value": "1560 ± 99.1", "unit": "ng/mL"}, {"measurement": "concentration at 2 h", "setting": "[2]", "value": "1550 ± 181", "unit": "ng/mL"}, {"measurement": "concentration at 4 h", "setting": "[2]", "value": "831 ± 96.6", "unit": "ng/mL"}, {"measurement": "concentration at 10 h", "setting": "[2]", "value": "115 ± 34.3", "unit": "ng/mL"}, {"measurement": "concentration at 24 h", "setting": "[2]", "value": "1.2 ± 0.262", "unit": "ng/mL"}, {"measurement": "concentration at 0.25 h", "setting": "[3]", "value": "1070 ± 209", "unit": "ng/mL"}, {"measurement": "concentration at 0.5 h", "setting": "[3]", "value": "2020 ± 160", "unit": "ng/mL"}, {"measurement": "concentration at 1 h", "setting": "[3]", "value": "2830 ± 372", "unit": "ng/mL"}, {"measurement": "concentration at 2 h", "setting": "[3]", "value": "3660 ± 315", "unit": "ng/mL"}, {"measurement": "concentration at 4 h", "setting": "[3]", "value": "1440 ± 285", "unit": "ng/mL"}, {"measurement": "concentration at 8 h", "setting": "[3]", "value": "661 ± 279", "unit": "ng/mL"}, {"measurement": "concentration at 10 h", "setting": "[3]", "value": "307 ± 60.4", "unit": "ng/mL"}, {"measurement": "concentration at 24 h", "setting": "[3]", "value": "3.86 ± 2.5", "unit": "ng/mL"}, {"measurement": "concentration at 36 h", "setting": "[3]", "value": 1.05, "unit": "ng/mL"}, {"measurement": "concentration at 0.25 h", "setting": "[4]", "value": "1810 ± 126", "unit": "ng/mL"}, {"measurement": "concentration at 0.5 h", "setting": "[4]", "value": "3460 ± 404", "unit": "ng/mL"}, {"measurement": "concentration at 1 h", "setting": "[4]", "value": "4860 ± 155", "unit": "ng/mL"}, {"measurement": "concentration at 2 h", "setting": "[4]", "value": "3650 ± 760", "unit": "ng/mL"}, {"measurement": "concentration at 4 h", "setting": "[4]", "value": "1220 ± 55.5", "unit": "ng/mL"}, {"measurement": "concentration at 8 h", "setting": "[4]", "value": "648 ± 142", "unit": "ng/mL"}, {"measurement": "concentration at 12 h", "setting": "[4]", "value": "43.6 ± 2.7", "unit": "ng/mL"}, {"measurement": "concentration at 0.25 h", "setting": "[5]", "value": "1680 ± 89.6", "unit": "ng/mL"}, {"measurement": "concentration at 0.5 h", "setting": "[5]", "value": "3160 ± 596", "unit": "ng/mL"}, {"measurement": "concentration at 1 h", "setting": "[5]", "value": "4850 ± 488", "unit": "ng/mL"}, {"measurement": "concentration at 2 h", "setting": "[5]", "value": "3620 ± 428", "unit": "ng/mL"}, {"measurement": "concentration at 4 h", "setting": "[5]", "value": "1750 ± 468", "unit": "ng/mL"}, {"measurement": "concentration at 10 h", "setting": "[5]", "value": "484 ± 109", "unit": "ng/mL"}, {"measurement": "concentration at 24 h", "setting": "[5]", "value": "4.28 ± 1.89", "unit": "ng/mL"}, {"measurement": "concentration at 36 h", "setting": "[5]", "value": "2.06 ± 1.17", "unit": "ng/mL"}, {"measurement": "concentration at 48 h", "setting": "[5]", "value": 0.635, "unit": "ng/mL"}, {"measurement": "concentration at 1 h", "setting": "[6]", "value": "117 ± 11", "unit": "ng/g"}, {"measurement": "concentration at 4 h", "setting": "[6]", "value": "143 ± 37.7", "unit": "ng/g"}, {"measurement": "concentration at 10 h", "setting": "[6]", "value": "93 ± 22.1", "unit": "ng/g"}, {"measurement": "concentration at 24 h", "setting": "[6]", "value": 3.27, "unit": "ng/g"}, {"measurement": "concentration at 1 h", "setting": "[7]", "value": "152 ± 35.7", "unit": "ng/g"}, {"measurement": "concentration at 4 h", "setting": "[7]", "value": "254 ± 43.2", "unit": "ng/g"}, {"measurement": "concentration at 10 h", "setting": "[7]", "value": "205 ± 40.9", "unit": "ng/g"}, {"measurement": "concentration at 24 h", "setting": "[7]", "value": "16.7 ± 12.2", "unit": "ng/g"}, {"measurement": "concentration at 48 h", "setting": "[7]", "value": 8.07, "unit": "ng/g"}, {"measurement": "concentration at 0.25 h", "setting": "[8]", "value": "58.9 ± 26.7", "unit": "ng/g"}, {"measurement": "concentration at 0.5 h", "setting": "[8]", "value": "61.5 ± 14", "unit": "ng/g"}, {"measurement": "concentration at 1 h", "setting": "[8]", "value": "239 ± 17.6", "unit": "ng/g"}, {"measurement": "concentration at 2 h", "setting": "[8]", "value": "382 ± 43.9", "unit": "ng/g"}, {"measurement": "concentration at 4 h", "setting": "[8]", "value": "214 ± 27.1", "unit": "ng/g"}, {"measurement": "concentration at 10 h", "setting": "[8]", "value": "54.7 ± 17.9", "unit": "ng/g"}, {"measurement": "concentration at 24 h", "setting": "[8]", "value": "22.5 ± 18.5", "unit": "ng/g"}, {"measurement": "concentration at 36 h", "setting": "[8]", "value": 38.5, "unit": "ng/g"}, {"measurement": "concentration at 48 h", "setting": "[8]", "value": 11.1, "unit": "ng/g"}, {"measurement": "concentration at 1 h", "setting": "[9]", "value": "254 ± 26.3", "unit": "ng/g"}, {"measurement": "concentration at 4 h", "setting": "[9]", "value": "439 ± 90.9", "unit": "ng/g"}, {"measurement": "concentration at 10 h", "setting": "[9]", "value": "130 ± 19", "unit": "ng/g"}, {"measurement": "concentration at 24 h", "setting": "[9]", "value": "12.9 ± 7.75", "unit": "ng/g"}, {"measurement": "concentration at 48 h", "setting": "[9]", "value": 7.64, "unit": "ng/g"}, {"measurement": "concentration at 1 h", "setting": "[10]", "value": "626 ± 78.6", "unit": "ng/g"}, {"measurement": "concentration at 4 h", "setting": "[10]", "value": "636 ± 83.4", "unit": "ng/g"}, {"measurement": "concentration at 10 h", "setting": "[10]", "value": "205 ± 47.2", "unit": "ng/g"}, {"measurement": "concentration at 24 h", "setting": "[10]", "value": "6.26 ± 1.12", "unit": "ng/g"}, {"measurement": "concentration at 48 h", "setting": "[10]", "value": 10.6, "unit": "ng/g"}]}
